Reference: patent US10744351B2 (priority 2009, dated 2020)

The compounds below were run on influenza virus (influenza A/Kitakyusyu/159/93(H3N2)).
Format: biochemical

Compound | HA titer
[Cu+].[I-] [COPPER(I) IODIDE, copper(I) iodide] | 16
[I][Pd][I] [PALLADIUM(II) IODIDE, palladium(II) iodide] | 4
[I-].[I-].[Pt+2] [PLATINUM(II) IODIDE, platinum(II) iodide] | <2
silver(I) iodide | 64
N#C[S-].[Cu+] [COPPER(I) THIOCYANATE, copper(I) thiocyanate] | 2
